Tests used:
Test in all cases: pNP release at […] nm, Michaelis-Menten fit
AFase-D3 = system: T1, AFase-D3; type: biochemical, metagenome: high temperature compost; conditions: at the enzyme's pH and temperature optima (pH 4.5, 25 °C), 1 min; abstract gives KM range up to 0.43 mM; read-out: KM in mM (Std. error)
T1 construct: full-length ORF, 494 residues, 56 kDa; C-terminal His tag (pET21a, NdeI-XhoI); E. coli BL21(DE3); homo-hexamer; primer-encoded N-terminus MNNVVINV

AFase-H4 = system: T2, AFase-H4; type: biochemical, uncultured bacterium (compost metagenome); conditions: at the enzyme's pH and temperature optima (pH 5.0, 60 °C), 1 min; read-out: KM in mM (Std. error)
T2 construct: full-length ORF, 489 residues, 55 kDa, no signal peptide; C-terminal His tag (pET21a, NdeI-XhoI); E. coli BL21(DE3); homo-hexamer

AFase-E3 = system: T3, AFase-E3; type: biochemical, metagenome: high temperature compost; conditions: at the enzyme's pH and temperature optima (pH 4.0, 60 °C), 1 min; read-out: KM in mM (Std. error)
T3 construct: full-length ORF, 510 residues, 58 kDa; C-terminal His tag (pET21a, NdeI-HindIII); E. coli BL21(DE3); homo-hexamer

## O=[N+]([O-])c1ccc(O[C@@H]2O[C@@H](CO)[C@H](O)[C@H]2O)cc1 [pNP-α-L-arabinofuranoside]
AFase-D3
  Km: 0.38 mM
AFase-H4
  Km: 0.31 mM
AFase-E3
  Km: 0.33 mM

— PMC6472066, “Characterisation of three novel α-L-arabinofuranosidases from a compost metagenome” (BMC Biotechnology, 2019)
